From patent US20140171357A1, “VANCOMYCIN DERIVATIVES” (Seachald Pharmaceuticals, Inc., priority 2011, published 2014)
Converted amounts (≈) assume the structure as drawn.

How the values were obtained:
B. anthracis Sterne 105 = format: cell-based, Bacillus anthracis; settings: Tween 80 0.002% medium, serum condition not stated
[1] = test system: methicillin-susceptible S. aureus (MSSA, 22); assay: MIC broth microdilution, MSSA; settings: for MIC50 / MIC90: Staphylococcus aureus, MSSA
[2] = test system: methicillin-resistant S. aureus (MRSA, 22); assay: MIC broth microdilution, MRSA; settings: for MIC50 / MIC90: Staphylococcus aureus, MRSA
[3] = test system: vancomycin-intermediate S. aureus (VISA, 5); assay: MIC broth microdilution, VISA
[4] = test system: vancomycin-resistant S. aureus (VRSA, 6); assay: MIC broth microdilution, VRSA
[5] = test system: heterogeneous VISA (hVISA, 10); assay: MIC broth microdilution, hVISA
S. pneumoniae (22) = assay: MIC broth microdilution, S. pneumoniae; settings: S. pneumoniae (22); MHB + lysed horse blood
[6] = test system: Staphylococcus epidermidis (43 strains); assay: MIC broth microdilution, S. epidermidis; settings: for MIC50 / MIC90: Staphylococcus epidermidis
[7] = test system: VanA vancomycin-resistant E. faecium (10); assay: MIC broth microdilution, VanA E. faecium; settings: for MIC50 / MIC90: Enterococcus faecium
[8] = test system: VanB vancomycin-resistant E. faecium (10); assay: MIC broth microdilution, VanB E. faecium; settings: for MIC50 / MIC90: Enterococcus faecium
S. aureus ATCC 25923 = assay: Neutropenic murine thigh infection model; settings: for AUCc-t (AUC difference between control and treated animals): 24 h time kill
[9] = test system: VanA vancomycin-resistant E. faecalis (11); assay: MIC broth microdilution, VanA E. faecalis; settings: for MIC50 / MIC90: Enterococcus faecalis
[10] = test system: VanB vancomycin-resistant E. faecalis (12); assay: MIC broth microdilution, VanB E. faecalis; settings: for MIC50 / MIC90: Enterococcus faecalis
[11] = test system: Staphylococcus aureus (65 strains); assay: MIC broth microdilution, S. aureus all isolates; settings: for MIC50 / MIC90: Staphylococcus aureus
[12] = test system: β-hemolytic streptococci (23); assay: MIC broth microdilution, β-hemolytic streptococci
VanC enterococci (22) = assay: MIC broth microdilution, vanC-carrying enterococci
[13] = test system: vancomycin-susceptible E. faecium (21); assay: MIC broth microdilution, vancomycin-susceptible E. faecium; settings: for MIC50 / MIC90: Enterococcus faecium
[14] = test system: vancomycin-susceptible E. faecalis (23); assay: MIC broth microdilution, vancomycin-susceptible E. faecalis; settings: for MIC50 / MIC90: Enterococcus faecalis
E. faecalis = assay: MIC broth microdilution, E. faecalis regardless of vancomycin susceptibility; settings: Enterococcus faecalis
[15] = 1 mg/kg single intraperitoneal dose
[16] = 4 mg/kg single intraperitoneal dose
[17] = 16 mg/kg single intraperitoneal dose
[18] = S. aureus (65), all resistance subsets
[19] = β-hemolytic streptococci (23), MHB + lysed horse blood
[20] = E. faecium, vancomycin-susceptible (21)
[21] = E. faecalis, vancomycin-susceptible (23)

`CNC(CC(C)C)C(=O)NC1C(=O)NC(CC(N)=O)C(=O)NC2C(=O)NC3C(=O)NC(C(=O)NC(C(=O)O)c4cc(O)c(CNCCOCCOCC[N+](C)(C)C)c(O)c4-c4cc3ccc4O)C(O)c3ccc(c(Cl)c3)Oc3cc2cc(c3OC2OC(CO)C(O)C(O)C2OC2CC(C)(NCc3ccc(OCc4ccc(Cl)c(Cl)c4)cc3)C(O)C(C)O2)Oc2ccc(cc2Cl)C1O` (stereo not shown) [Compound 29] was tested, and the MIC (B. anthracis Sterne 105) was 0.03 µg/mL, the “MIC 50%” value ([1]; MSSA (22)) was 0.06 µg/mL and the “MIC 90%” value ([1]; MSSA (22)) was 0.12 µg/mL. For the same molecule, the “MIC 50%” value ([2]; MRSA (22)) was 0.06 µg/mL, the “MIC 90%” value ([2]; MRSA (22)) was 0.12 µg/mL and the “MIC 50%” value [3] was 0.25 µg/mL. The “MIC 50%” value [4] was 4 µg/mL, the “MIC 50%” value [5] was 0.06 µg/mL and the “MIC 90%” value [5] was 0.12 µg/mL. For the same molecule, the “MIC 50%” value (S. pneumoniae (22)) was 0.03 µg/mL, the “MIC 90%” value (S. pneumoniae (22)) was 0.06 µg/mL and the “MIC 50%” value ([6]; S. epidermidis (43)) was 0.03 µg/mL. For the same molecule, the “MIC 90%” value ([6]; S. epidermidis (43)) was 0.06 µg/mL, the “MIC 50%” value ([7]; E. faecium, VanA (10)) was 1 µg/mL and the “MIC 90%” value ([7]; E. faecium, VanA (10)) was 2 µg/mL. For the same molecule, the “MIC 50%” value ([8]; E. faecium, VanB (10)) was 0.06 µg/mL, the “MIC 90%” value ([8]; E. faecium, VanB (10)) was 0.06 µg/mL and the “Max Kill (maximum decrease from initial infection level)” value (S. aureus ATCC 25923; [15]) was 0.08 Log10 CFU/thigh. The “AUCc-t (AUC difference between control and treated animals)” value (S. aureus ATCC 25923; [15]) was 17.7 (Log10 CFU/thigh)/hr, the “Max Kill (maximum decrease from initial infection level)” value (S. aureus ATCC 25923; [16]) was 0.07 Log10 CFU/thigh and the “AUCc-t (AUC difference between control and treated animals)” value (S. aureus ATCC 25923; [16]) was 22.6 (Log10 CFU/thigh)/hr. For the same molecule, the “Max Kill (maximum decrease from initial infection level)” value (S. aureus ATCC 25923; [17]) was −1.05 Log10 CFU/thigh, the “AUCc-t (AUC difference between control and treated animals)” value (S. aureus ATCC 25923; [17]) was 45.2 (Log10 CFU/thigh)/hr and the “in vivo efficacy against S. aureus (in words)” value (S. aureus ATCC 25923; neutropenic soft tissue infection model) was “bactericidal characteristics and prolonged in vivo activity”. For the same molecule, the “MIC 50%” value ([9]; E. faecalis, VanA (11)) was 4 µg/mL, the “MIC 90%” value ([9]; E. faecalis, VanA (11)) was 4 µg/mL and the “MIC 50%” value ([10]; E. faecalis, VanB (12)) was 0.12 µg/mL. For the same molecule, the “MIC 90%” value ([10]; E. faecalis, VanB (12)) was 0.12 µg/mL, the “MIC 50%” value [11, 18] was 0.06 µg/mL and the “MIC 90%” value [11, 18] was 0.25 µg/mL. For the same molecule, the “fold more potent than teicoplanin and daptomycin” value ([12]; β-hemolytic streptococci) was “two- to four”, the “fold more potent than vancomycin” value ([12]; β-hemolytic streptococci) was “four- to eight” and the “MIC 50%” value [12, 19] was 0.03 µg/mL. For the same molecule, the “MIC 90%” value [12, 19] was 0.12 µg/mL, the “MIC 50%” value (VanC enterococci (22); VanC enterococci (22)) was 0.12 µg/mL and the “MIC 90%” value (VanC enterococci (22); VanC enterococci (22)) was 0.5 µg/mL. The “MIC 50%” value [13, 20] was 0.03 µg/mL, the “MIC 90%” value [13, 20] was 0.06 µg/mL and the “MIC 50%” value [14, 21] was 0.12 µg/mL. The “MIC 90%” value [14, 21] was 0.12 µg/mL.

Work on `CCCCCCCCCC(=O)N[C@@H](Cc1c[nH]c2ccccc12)C(=O)N[C@H](CC(N)=O)C(=O)N[C@@H](CC(=O)O)C(=O)N[C@@H]1C(=O)NCC(=O)N[C@@H](CCCN)C(=O)N[C@@H](CC(=O)O)C(=O)N[C@H](C)C(=O)N[C@@H](CC(=O)O)C(=O)NCC(=O)N[C@H](CO)C(=O)N[C@@H]([C@H](C)CC(=O)O)C(=O)N[C@@H](CC(=O)c2ccccc2N)C(=O)O[C@@H]1C` [Daptomycin, reference compound] yielded an MIC50 [1] of 0.25 µg/mL (≈ 0.154 µM), an MIC90 [1] of 0.5 µg/mL (≈ 0.309 µM) and an MIC50 [2] of 0.25 µg/mL (≈ 0.154 µM). The MIC90 [2] was 0.5 µg/mL (≈ 0.309 µM), the MIC50 [6] was 0.25 µg/mL (≈ 0.154 µM) and the MIC90 [6] was 0.5 µg/mL (≈ 0.309 µM). The MIC50 [7] was 2 µg/mL (≈ 1.23 µM), the MIC90 [7] was 2 µg/mL (≈ 1.23 µM) and the MIC50 [8] was 2 µg/mL (≈ 1.23 µM). For the same molecule, the MIC90 [8] was 2 µg/mL (≈ 1.23 µM), the MIC50 [9] was 1 µg/mL (≈ 0.617 µM) and the MIC90 [9] was 2 µg/mL (≈ 1.23 µM). For the same molecule, the MIC50 [10] was 0.5 µg/mL (≈ 0.309 µM), the MIC90 [10] was 1 µg/mL (≈ 0.617 µM) and the MIC50 [11] was 0.25 µg/mL (≈ 0.154 µM). The MIC90 [11] was 1 µg/mL (≈ 0.617 µM), the MIC50 (VanC enterococci (22)) was 1 µg/mL (≈ 0.617 µM) and the MIC90 (VanC enterococci (22)) was 2 µg/mL (≈ 1.23 µM). For the same molecule, the MIC50 [13] was 2 µg/mL (≈ 1.23 µM), the MIC90 [13] was 2 µg/mL (≈ 1.23 µM) and the MIC50 [14] was 1 µg/mL (≈ 0.617 µM). It also gave an MIC90 [14] of 2 µg/mL (≈ 1.23 µM), an MIC50 (E. faecalis) of 0.5 to 1 µg/mL (≈ 0.309 to 0.617 µM) and an MIC90 (E. faecalis) of 1 to 2 µg/mL (≈ 0.617 to 1.23 µM).

`CC(=O)NC[C@H]1CN(c2ccc(N3CCOCC3)c(F)c2)C(=O)O1` [Linezolid, reference compound] gave an MIC50 [1] of 1 µg/mL (≈ 2.96 µM), an MIC90 [1] of 1 µg/mL (≈ 2.96 µM) and an MIC50 [2] of 1 µg/mL (≈ 2.96 µM). The MIC90 [2] was 1 µg/mL (≈ 2.96 µM), the MIC50 [6] was 0.5 µg/mL (≈ 1.48 µM) and the MIC90 [6] was 1 µg/mL (≈ 2.96 µM). For the same molecule, the MIC50 [7] was 1 µg/mL (≈ 2.96 µM), the MIC90 [7] was 1 µg/mL (≈ 2.96 µM) and the MIC50 [8] was 1 µg/mL (≈ 2.96 µM). For the same molecule, the MIC90 [8] was 1 µg/mL (≈ 2.96 µM), the MIC50 [9] was 1 µg/mL (≈ 2.96 µM) and the MIC90 [9] was 1 µg/mL (≈ 2.96 µM). For the same molecule, the MIC50 [10] was 1 µg/mL (≈ 2.96 µM), the MIC90 [10] was 1 µg/mL (≈ 2.96 µM) and the MIC50 [11] was 1 µg/mL (≈ 2.96 µM). It also gave an MIC90 [11] of 1 µg/mL (≈ 2.96 µM), an MIC50 (VanC enterococci (22)) of 1 µg/mL (≈ 2.96 µM) and an MIC90 (VanC enterococci (22)) of 2 µg/mL (≈ 5.93 µM). It also gave an MIC50 [13] of 1 µg/mL (≈ 2.96 µM), an MIC90 [13] of 2 µg/mL (≈ 5.93 µM) and an MIC50 [14] of 1 µg/mL (≈ 2.96 µM). The MIC90 [14] was 1 µg/mL (≈ 2.96 µM), the MIC50 (E. faecalis) was 1 µg/mL (≈ 2.96 µM) and the MIC90 (E. faecalis) was 1 µg/mL (≈ 2.96 µM).
